Experimental data reported in article PMC10493395, “Optimization of a small molecule inhibitor of secondary nucleation in α-synuclein aggregation” (Frontiers in Molecular Biosciences, 2023).

Target: T1, α-synuclein (Homo sapiens, UniProt P37840)
T1 construct: gene SNCA; preformed fibrils of recombinant wild-type α-synuclein
Experiment: fibril ultracentrifugation depletion with LC-MS of unbound compound in the supernatant, dose-response fit (second estimate […] by varying fibril concentration)
Assay type: binding

Structure (SMILES): O=C1NN(c2ccccc2)C(=O)C1=Cc1coc2ccc(Cl)cc2c1=O [69.2, compound 69.2]
- Kd: 6 ± 1 µM
